Experimental data taken from CN101659655A, “一类吡唑酰胺衍生物及其应用” (Nankai University, priority 2009, dated 2010).

Legend:
Type in all cases: in vivo
[1] = system: oriental armyworm, Mythimna separata Walker (东方粘虫); test: bioactivity evaluation against oriental armyworm, leaf dip; conditions: in Zea mays, foliar, 72 h, read-out: mortality grade
[2] = system: beet armyworm, Laphygma exigua Hubner (甜菜夜蛾); test: bioactivity evaluation against beet armyworm, leaf dip; conditions: Spodoptera exigua, in Brassica oleracea, foliar, 72 h, read-out: mortality grade
[3] = system: diamondback moth, Plutella xylostella (L.) (小菜蛾); test: bioactivity evaluation against diamondback moth, leaf dip; conditions: in Brassica oleracea, foliar, 72 h, read-out: mortality grade

Measured: mortality at 500 ppm

Cc1cc(Cl)cc(C(=O)NC2CC2)c1NC(=O)c1cc(OCC(F)(F)F)nn1-c1ncccc1Cl [compound 18]
90 to 100%: all assays above
